From ChEMBL document CHEMBL4052645, “Discovery of potent and efficacious pyrrolopyridazines as dual JAK1/3 inhibitors” (Bioorg Med Chem Lett, 2017)

How the values were obtained:
[1] = molecular target: Tyrosine-protein kinase Fer (Homo sapiens) (UniProt P16591); assay: Inhibition of wild-type human partial length FER (S542 to T822 residues) expressed in bacterial expression system assessed as residual activity at 50 nM by Kinomescan method relative to control
[2] = molecular target: Ephrin type-B receptor 3 (Homo sapiens) (UniProt P54753); assay: Inhibition of wild-type human partial length EPHB3 (Q599 to T928 residues) expressed in bacterial expression system assessed as residual activity at 50 nM by Kinomescan method relative to control
[3] = molecular target: Receptor-type tyrosine-protein kinase FLT3 (Homo sapiens) (UniProt P36888); assay: Inhibition of wild-type human partial length FLT3 (V592 to Y969 residues) expressed in bacterial expression system assessed as residual activity at 50 nM by Kinomescan method relative to control
[4] = molecular target: Calcium/calmodulin-dependent protein kinase type II subunit alpha (Homo sapiens) (UniProt Q9UQM7); assay: Inhibition of wild-type human partial length CAMK2A (M1 to K328 residues) expressed in bacterial expression system assessed as residual activity at 50 nM by Kinomescan method relative to control
[5] = molecular target: Serine/threonine-protein kinase 24 (Homo sapiens) (UniProt Q9Y6E0); assay: Inhibition of wild-type human partial length MST3 (A30 to S311 residues) expressed in bacterial expression system assessed as residual activity at 50 nM by Kinomescan method relative to control
[6] = molecular target: Aurora kinase C (Homo sapiens) (UniProt Q9UQB9); assay: Inhibition of wild-type human full length AURC (M1 to S275 residues) expressed in bacterial expression system assessed as residual activity at 50 nM by Kinomescan method relative to control
Aurora kinase C (Homo sapiens), sequence (Q9UQB9 whole entry, the tested form may be a part): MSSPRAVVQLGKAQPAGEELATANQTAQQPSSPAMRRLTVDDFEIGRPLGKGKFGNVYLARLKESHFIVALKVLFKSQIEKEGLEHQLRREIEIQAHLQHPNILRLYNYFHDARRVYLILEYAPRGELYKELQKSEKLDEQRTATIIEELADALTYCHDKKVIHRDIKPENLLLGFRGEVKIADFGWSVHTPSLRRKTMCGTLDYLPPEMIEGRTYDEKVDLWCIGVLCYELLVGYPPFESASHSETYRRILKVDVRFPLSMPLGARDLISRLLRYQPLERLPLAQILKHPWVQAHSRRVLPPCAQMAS

[7] = molecular target: Serine/threonine-protein kinase 35 (Homo sapiens) (UniProt Q8TDR2); assay: Inhibition of wild-type human partial length CLIK1 (G182 to A534 residues) expressed in bacterial expression system assessed as residual activity at 50 nM by Kinomescan method relative to control
Serine/threonine-protein kinase 35 (Homo sapiens), sequence (Q8TDR2 whole entry, the tested form may be a part): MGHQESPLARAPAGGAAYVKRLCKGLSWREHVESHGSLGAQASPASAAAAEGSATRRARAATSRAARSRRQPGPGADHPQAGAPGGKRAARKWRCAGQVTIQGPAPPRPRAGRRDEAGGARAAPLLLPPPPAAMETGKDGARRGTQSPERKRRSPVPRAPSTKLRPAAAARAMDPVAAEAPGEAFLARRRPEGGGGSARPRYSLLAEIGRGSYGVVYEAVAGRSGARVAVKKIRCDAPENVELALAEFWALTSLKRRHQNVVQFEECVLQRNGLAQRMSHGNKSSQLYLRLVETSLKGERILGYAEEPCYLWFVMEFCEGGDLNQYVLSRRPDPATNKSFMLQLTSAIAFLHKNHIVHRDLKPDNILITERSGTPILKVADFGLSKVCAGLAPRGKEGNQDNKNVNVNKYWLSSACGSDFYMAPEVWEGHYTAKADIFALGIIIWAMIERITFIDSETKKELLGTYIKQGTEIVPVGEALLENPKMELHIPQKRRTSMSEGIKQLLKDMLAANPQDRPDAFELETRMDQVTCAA

[8] = molecular target: Cyclin-G-associated kinase (Homo sapiens) (UniProt O14976); assay: Inhibition of wild-type human partial length GAK (G13 to Y338 residues) expressed in bacterial expression system assessed as residual activity at 50 nM by Kinomescan method relative to control
[9] = molecular target: Fibroblast growth factor receptor 3 (Homo sapiens) (UniProt P22607); assay: Inhibition of wild-type human partial length FGFR3 (R442 to S771 residues) expressed in bacterial expression system assessed as residual activity at 50 nM by Kinomescan method relative to control
[10] = molecular target: Tyrosine-protein kinase FRK (Homo sapiens) (UniProt P42685); assay: Inhibition of wild-type human partial length FRK (A215 to F503 residues) expressed in bacterial expression system assessed as residual activity at 50 nM by Kinomescan method relative to control
[11] = molecular target: Tyrosine-protein kinase SYK (Homo sapiens) (UniProt P43405); assay: Inhibition of wild-type human partial length SYK (D354 to N635 residues) expressed in bacterial expression system assessed as residual activity at 50 nM by Kinomescan method relative to control
[12] = molecular target: Ephrin type-A receptor 5 (Homo sapiens) (UniProt P54756); assay: Inhibition of wild-type human partial length EPHA5 (T627 to V930 residues) expressed in bacterial expression system assessed as residual activity at 50 nM by Kinomescan method relative to control
[13] = molecular target: Serine/threonine-protein kinase TAO2 (Homo sapiens) (UniProt Q9UL54); assay: Inhibition of wild-type human partial length TAO2 (M1 to A320 residues) expressed in mammalian expression system assessed as residual activity at 50 nM by Kinomescan method relative to control
[14] = molecular target: Platelet-derived growth factor receptor alpha (Homo sapiens) (UniProt P16234); assay: Inhibition of wild-type human partial length PDGFRA (V575 to D1002 residues) expressed in mammalian expression system assessed as residual activity at 50 nM by Kinomescan method relative to control
[15] = molecular target: Ribosomal protein S6 kinase alpha-3 (Homo sapiens) (UniProt P51812); assay: Inhibition of wild-type human partial length N-terminal RSK2 kinase domain 1 (M1 to D394 residues) expressed in mammalian expression system assessed as residual activity at 50 nM by Kinomescan method relative to control
[16] = molecular target: Calcium/calmodulin-dependent protein kinase type 1G (Homo sapiens) (UniProt Q96NX5); assay: Inhibition of wild-type human partial length CAMK1G (M1 to A342 residues) expressed in bacterial expression system assessed as residual activity at 50 nM by Kinomescan method relative to control
[17] = molecular target: Myotonin-protein kinase (Homo sapiens) (UniProt Q09013); assay: Inhibition of human DMPK1 (V47 to N415 residues) expressed in bacterial expression system assessed as residual activity at 50 nM by KINOMEscan assay relative to control
[18] = molecular target: Serine/threonine-protein kinase 38-like (Homo sapiens) (UniProt Q9Y2H1); assay: Inhibition of wild-type human partial length NDR2 (N34 to E447 residues) expressed in bacterial expression system assessed as residual activity at 50 nM by Kinomescan method relative to control
[19] = molecular target: Transient receptor potential cation channel subfamily M member 6 (Homo sapiens) (UniProt Q9BX84); assay: Inhibition of wild-type human partial length TRPM6 (Q1723 to I1998 residues) expressed in mammalian expression system assessed as residual activity at 50 nM by Kinomescan method relative to control
Transient receptor potential cation channel subfamily M member 6 (Homo sapiens), sequence (Q9BX84 whole entry, the tested form may be a part): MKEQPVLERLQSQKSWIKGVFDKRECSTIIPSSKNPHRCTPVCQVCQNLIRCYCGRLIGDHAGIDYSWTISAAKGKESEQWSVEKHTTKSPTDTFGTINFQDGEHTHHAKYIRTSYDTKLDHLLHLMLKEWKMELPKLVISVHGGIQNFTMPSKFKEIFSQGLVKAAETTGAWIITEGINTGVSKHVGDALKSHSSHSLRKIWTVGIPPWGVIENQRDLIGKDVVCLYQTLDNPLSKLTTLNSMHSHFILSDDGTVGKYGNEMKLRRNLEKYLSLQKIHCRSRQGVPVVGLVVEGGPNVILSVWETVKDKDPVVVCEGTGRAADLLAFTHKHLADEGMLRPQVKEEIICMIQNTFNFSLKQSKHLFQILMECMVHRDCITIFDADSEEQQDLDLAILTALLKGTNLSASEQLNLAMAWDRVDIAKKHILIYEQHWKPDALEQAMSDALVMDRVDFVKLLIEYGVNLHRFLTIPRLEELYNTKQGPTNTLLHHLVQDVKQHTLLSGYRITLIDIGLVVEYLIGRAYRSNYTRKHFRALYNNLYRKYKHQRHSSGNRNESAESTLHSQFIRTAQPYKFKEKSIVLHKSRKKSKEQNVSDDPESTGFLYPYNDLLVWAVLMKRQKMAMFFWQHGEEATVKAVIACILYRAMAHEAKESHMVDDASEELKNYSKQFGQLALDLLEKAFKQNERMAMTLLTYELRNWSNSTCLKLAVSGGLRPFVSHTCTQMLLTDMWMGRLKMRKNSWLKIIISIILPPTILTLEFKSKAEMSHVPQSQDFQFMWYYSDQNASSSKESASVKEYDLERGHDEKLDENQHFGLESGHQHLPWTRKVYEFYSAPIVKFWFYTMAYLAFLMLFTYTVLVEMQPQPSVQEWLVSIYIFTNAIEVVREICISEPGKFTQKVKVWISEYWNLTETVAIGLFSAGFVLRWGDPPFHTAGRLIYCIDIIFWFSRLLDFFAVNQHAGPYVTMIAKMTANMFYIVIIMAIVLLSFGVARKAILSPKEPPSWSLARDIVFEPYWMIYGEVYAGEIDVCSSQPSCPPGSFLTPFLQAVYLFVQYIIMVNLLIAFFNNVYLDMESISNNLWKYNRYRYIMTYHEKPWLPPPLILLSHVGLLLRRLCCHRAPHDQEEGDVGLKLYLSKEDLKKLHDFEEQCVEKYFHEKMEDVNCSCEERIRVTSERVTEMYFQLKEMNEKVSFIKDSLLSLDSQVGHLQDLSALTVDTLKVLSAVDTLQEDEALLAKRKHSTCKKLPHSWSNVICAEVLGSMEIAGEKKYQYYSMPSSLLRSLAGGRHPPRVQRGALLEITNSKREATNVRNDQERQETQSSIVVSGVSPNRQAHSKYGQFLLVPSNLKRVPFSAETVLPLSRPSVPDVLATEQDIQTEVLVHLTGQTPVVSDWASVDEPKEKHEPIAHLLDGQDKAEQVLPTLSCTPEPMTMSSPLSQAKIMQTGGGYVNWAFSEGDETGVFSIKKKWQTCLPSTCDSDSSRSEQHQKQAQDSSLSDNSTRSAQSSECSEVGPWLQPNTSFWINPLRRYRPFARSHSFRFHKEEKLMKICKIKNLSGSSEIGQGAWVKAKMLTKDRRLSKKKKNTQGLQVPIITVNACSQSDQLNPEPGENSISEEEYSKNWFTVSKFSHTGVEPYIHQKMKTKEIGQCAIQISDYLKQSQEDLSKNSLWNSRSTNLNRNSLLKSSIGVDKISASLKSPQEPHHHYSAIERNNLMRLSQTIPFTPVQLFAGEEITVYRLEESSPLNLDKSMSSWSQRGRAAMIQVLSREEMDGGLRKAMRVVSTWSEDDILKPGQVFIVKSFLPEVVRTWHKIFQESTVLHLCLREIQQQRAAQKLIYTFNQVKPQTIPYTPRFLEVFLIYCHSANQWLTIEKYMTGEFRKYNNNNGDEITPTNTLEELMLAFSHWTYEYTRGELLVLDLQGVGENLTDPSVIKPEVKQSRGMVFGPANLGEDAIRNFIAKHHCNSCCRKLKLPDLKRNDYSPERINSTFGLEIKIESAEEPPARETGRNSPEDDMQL

[20] = molecular target: Serine/threonine-protein kinase 17B (Homo sapiens) (UniProt O94768); assay: Inhibition of wild-type human full length DRAK2 (M1 to C372 residues) expressed in bacterial expression system assessed as residual activity at 50 nM by Kinomescan method relative to control
[21] = molecular target: STE20-like serine/threonine-protein kinase (Homo sapiens) (UniProt Q9H2G2); assay: Inhibition of wild-type human partial length SLK (S14 to A307 residues) expressed in bacterial expression system assessed as residual activity at 50 nM by Kinomescan method relative to control
[22] = molecular target: Tyrosine-protein kinase receptor Tie-1 (Homo sapiens) (UniProt P35590); assay: Inhibition of wild-type human partial length TIE1 (T819 to A1138 residues) expressed in bacterial expression system assessed as residual activity at 50 nM by Kinomescan method relative to control
Tyrosine-protein kinase receptor Tie-1 (Homo sapiens), sequence (P35590 whole entry, the tested form may be a part): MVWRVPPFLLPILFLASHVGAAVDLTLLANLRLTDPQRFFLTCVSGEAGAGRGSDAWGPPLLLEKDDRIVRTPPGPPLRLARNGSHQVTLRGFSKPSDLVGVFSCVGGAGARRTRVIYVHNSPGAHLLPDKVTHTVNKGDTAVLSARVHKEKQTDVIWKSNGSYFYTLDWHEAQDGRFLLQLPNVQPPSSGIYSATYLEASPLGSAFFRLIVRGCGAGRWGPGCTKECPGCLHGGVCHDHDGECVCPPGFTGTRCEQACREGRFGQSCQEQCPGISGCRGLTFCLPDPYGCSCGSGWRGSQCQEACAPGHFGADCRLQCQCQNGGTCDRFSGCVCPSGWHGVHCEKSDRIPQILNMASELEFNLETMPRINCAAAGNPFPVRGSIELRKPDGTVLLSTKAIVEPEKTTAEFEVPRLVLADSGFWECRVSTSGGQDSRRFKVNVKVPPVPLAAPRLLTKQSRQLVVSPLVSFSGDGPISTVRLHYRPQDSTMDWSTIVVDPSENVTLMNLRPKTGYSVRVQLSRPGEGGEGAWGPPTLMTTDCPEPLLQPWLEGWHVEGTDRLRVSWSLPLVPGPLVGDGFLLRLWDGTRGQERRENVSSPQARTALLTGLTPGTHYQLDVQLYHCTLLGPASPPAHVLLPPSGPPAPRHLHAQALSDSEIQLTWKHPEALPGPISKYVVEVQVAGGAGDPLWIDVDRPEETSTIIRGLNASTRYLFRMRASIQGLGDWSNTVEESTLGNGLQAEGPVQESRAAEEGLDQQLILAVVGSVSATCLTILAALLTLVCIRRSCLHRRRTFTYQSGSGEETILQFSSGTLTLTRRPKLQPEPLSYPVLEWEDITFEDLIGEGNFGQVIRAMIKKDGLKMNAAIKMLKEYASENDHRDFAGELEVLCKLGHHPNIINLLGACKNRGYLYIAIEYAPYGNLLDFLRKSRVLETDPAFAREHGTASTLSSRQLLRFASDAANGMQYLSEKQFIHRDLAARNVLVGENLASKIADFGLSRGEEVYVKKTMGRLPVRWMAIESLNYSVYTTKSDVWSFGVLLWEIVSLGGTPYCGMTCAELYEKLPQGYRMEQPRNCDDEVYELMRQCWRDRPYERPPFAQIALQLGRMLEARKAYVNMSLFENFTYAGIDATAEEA

[23] = molecular target: Activated CDC42 kinase 1 (Homo sapiens) (UniProt Q07912); assay: Inhibition of wild-type human partial length ACK (S159 to D474 residues) expressed in bacterial expression system assessed as residual activity at 50 nM by Kinomescan method relative to control
[24] = molecular target: AP2-associated protein kinase 1 (Homo sapiens) (UniProt Q2M2I8); assay: Inhibition of human wild-type AAK1 (G25 to L333 residues) expressed in bacterial expression system assessed as residual activity at 50 nM by Kinomescan method relative to control
[25] = molecular target: Tyrosine-protein kinase JAK3 (Homo sapiens) (UniProt P52333); assay: Inhibition of human JAK3 D2 domain (I781 to S1124 residues) expressed in mammalian expression system assessed as residual activity at 50 nM by KINOMEscan assay relative to control

Tyrosine-protein kinase Fer (Homo sapiens), sequence (P16591 whole entry, looked up, the tested form may be a part): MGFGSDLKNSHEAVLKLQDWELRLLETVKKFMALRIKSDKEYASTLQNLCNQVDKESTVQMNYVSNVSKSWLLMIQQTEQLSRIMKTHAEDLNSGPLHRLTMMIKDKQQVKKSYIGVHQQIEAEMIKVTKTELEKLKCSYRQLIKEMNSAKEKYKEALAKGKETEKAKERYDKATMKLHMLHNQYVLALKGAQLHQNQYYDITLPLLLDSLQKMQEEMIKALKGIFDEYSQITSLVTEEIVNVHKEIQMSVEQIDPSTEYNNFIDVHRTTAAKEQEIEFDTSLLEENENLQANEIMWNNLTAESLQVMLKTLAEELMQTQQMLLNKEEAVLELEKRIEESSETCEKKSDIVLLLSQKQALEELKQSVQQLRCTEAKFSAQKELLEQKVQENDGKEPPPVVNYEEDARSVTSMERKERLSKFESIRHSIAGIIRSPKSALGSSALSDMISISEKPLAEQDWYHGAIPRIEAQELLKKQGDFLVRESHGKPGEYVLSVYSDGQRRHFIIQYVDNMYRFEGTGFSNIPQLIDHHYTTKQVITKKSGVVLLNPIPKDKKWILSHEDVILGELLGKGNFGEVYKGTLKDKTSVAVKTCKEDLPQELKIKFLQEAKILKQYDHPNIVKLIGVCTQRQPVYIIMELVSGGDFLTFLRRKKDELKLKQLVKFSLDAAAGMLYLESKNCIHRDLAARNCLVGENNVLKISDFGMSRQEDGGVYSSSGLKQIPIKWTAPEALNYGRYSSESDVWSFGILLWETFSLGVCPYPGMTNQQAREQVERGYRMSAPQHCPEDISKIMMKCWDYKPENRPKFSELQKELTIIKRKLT

COc1ccc(-c2cc3c(N[C@@H]4CC[C@](C)(N)C4(C)C)c(C(N)=O)cnn3c2)cn1
Activity [1]: 100% | Activity [2]: 100% | Activity [3]: 90% | Activity [4]: 100% | Activity [5]: 61% | Activity [6]: 82% | Activity [7]: 87% | Activity [8]: 100% | Activity [9]: 82% | Activity [10]: 100% | Activity [11]: 91% | Activity [12]: 100% | Activity [13]: 81% | Activity [14]: 97% | Activity [15]: 74% | Activity [16]: 82% | Activity [17]: 38% | Activity [18]: 100% | Activity [19]: 90% | Activity [20]: 100% | Activity [21]: 94% | Activity [22]: 97% | Activity [23]: 100% | Activity [24]: 73% | Activity [25]: 40%

CC1(C)[C@H](Nc2c(C(N)=O)cnn3cc(-c4ccccc4)cc23)CC[C@]1(C)N
Activity [1]: 100% | Activity [2]: 100% | Activity [3]: 72% | Activity [4]: 88% | Activity [5]: 38% | Activity [6]: 42% | Activity [7]: 74% | Activity [8]: 91% | Activity [9]: 100% | Activity [10]: 89% | Activity [11]: 82% | Activity [12]: 100% | Activity [13]: 72% | Activity [14]: 67% | Activity [15]: 47% | Activity [16]: 100% | Activity [17]: 2.8% | Activity [18]: 100% | Activity [19]: 100% | Activity [20]: 100% | Activity [21]: 18% | Activity [22]: 91% | Activity [23]: 73% | Activity [24]: 63% | Activity [25]: 3.8%
